Reference: patent US11261201B2 (priority 2018, dated 2022)
≈ marks a conversion by molar mass, not a printed value. Where a name gives a salt, the structure may show the parent alone. Read-outs that look alike come from different tables or passages of the source.

What was measured:
E. coli = assay: Gram negative MIC protocol (OD600, LB, 24 h); conditions: for MIC: Escherichia coli
Protocol: (§1) Overnight bacterial cultures were grown in LB with no added antibiotics at 37° C. with shaking. A 1:1000 dilution of these cultures into LB was exposed to concentration gradients of compounds in 96-well plates (100 μL per well assay volume). Resulting plates were incubated at 37° C. for 24 h without shaking, and OD600 was measured at the end of the incubation. MICs were determined as the lowest concentrations at which OD600 remained at baseline.

A. baumannii = assay: Gram negative MIC protocol (OD600, LB, 24 h); conditions: for MIC: Acinetobacter baumannii
Protocol: as §1

H37RvMA = assay: Tuberculosis Alamar Blue/Resazurin assay (MIC); format: cell-based; conditions: read-out: WT H37Rv MTB Activity
[1] = read-out: MIC E. coli delta-TolC LB Media, E. coli delta-TolC strain, LB media, 24 h, OD600
[2] = read-out: MIC WT E. coli LB Media, wild-type E. coli, LB media, 24 h, OD600
[3] = read-out: MIC A. baumannii LB Media, A. baumannii, LB media, 24 h, OD600
[4] = Mycobacterium tuberculosis, H37RV, WT H37Rv MTB
[5] = read-out: MIC E. coli delta-TolC LB Media, E. coli delta-TolC, LB media, OD600
[6] = read-out: MIC WT E. coli LB Media, WT E. coli, LB media, OD600
[7] = read-out: MIC A. baumannii LB Media
[8] = Mycobacterium tuberculosis, H37RV

SMILES | MIC (E. coli; [1]) [µM] | MIC (E. coli; [2]) [µM] | MIC (A. baumannii; [3]) [µM] | MIC (H37RvMA; [4]) [µM] | MIC (E. coli; [5]) [µM] | MIC (E. coli; [6]) [µM] | also measured
Cl.c1ccc(CNCC2CCCCC2)cc1 [B17] | – | – | – | – | – | – | MIC E. coli delta-TolC LB Media (E. coli; E. coli delta-TolC, LB media, OD600): >150 µM; MIC WT E. coli LB Media (E. coli; WT E. coli, LB media, OD600): >150 µM; MIC A. baumannii LB Media (A. baumannii; A. baumannii, LB media, OD600): >150 µM; MIC (H37RvMA; WT H37Rv MTB): >150 µM
c1ccc(OCC2CCOC2)c(CNCCC2CCCCC2)c1 (stereo not shown) [B330, 2-cyclohexyl-N-(2-((tetrahydrofuran-3-yl)methoxy)benzyl)ethanamine] | 33 (≈ 10.5 µg/mL) | > 150 | > 150 | > 150 | – | – | –
COc1ccccc1CNCCC1CCCCC1 [B253, 2-cyclohexyl-N-(2-methoxybenzyl)ethanamine hydrochloride] | 37 | 150 | > 150 | > 150 | – | – | –
CC(CC1CCCCC1)NCc1ccccc1CS(=O)(=O)NC1CCN(C)CC1 (stereo not shown) [B432, 1-(2-(((1-cyclohexylpropan-2-yl)amino)methyl)phenyl)-N-(1-methylpiperidin-4-yl)methanesulfonamide] | – | – | > 150 | > 150 | 33 (≈ 13.9 µg/mL) | 150 (≈ 63.2 µg/mL) | –
OC(CNCc1ccccc1)C1CCCCC1 (stereo not shown) [B172] | – | – | – | – | 96 (≈ 22.4 µg/mL) | 170 (≈ 39.7 µg/mL) | MIC (A. baumannii; [7]): > 300 µM; MIC (H37RvMA; [8]): > 150 µM
c1ccc(CNCCc2ccc3c(c2)COC3)cc1 [B65] | – | – | – | – | > 150 | > 150 | MIC (A. baumannii; [7]): > 150 µM; MIC (H37RvMA; [8]): > 150 µM
c1ccc(CNCCc2ccc3[nH]ccc3c2)cc1 [B56] | – | – | – | – | > 150 | > 150 | MIC (A. baumannii; [7]): > 150 µM; MIC (H37RvMA; [8]): > 150 µM
CC(CC1CCCCC1)NCc1ccccc1CC(N)C(=O)O (stereo not shown) [B466, 2-amino-3-(2-(((1-cyclohexylpropan-2-yl)amino)methyl)phenyl)propanoic acid] | – | – | > 150 | > 55 | > 150 | > 150 | –
OCc1ccccc1CNCCC1CCCCC1 [B255] | 84 (≈ 20.8 µg/mL) | > 150 | > 150 | > 150 | – | – | –
c1ccc(CNCCC2CCOCC2)cc1 [B25] | – | – | > 150 | > 150 | > 150 | > 150 | –
c1coc(-c2ccccc2CNCCC2CCCCC2)c1 [B236, 2-cyclohexyl-N-(2-(furan-2-yl)benzyl)ethanamine hydrochloride] | 17 | 54 | 300 | 150 | – | – | –
CC(CC1CCCCC1)NCc1ccccc1CCS(N)(=O)=O (stereo not shown) [B451, 2-(2-(((1-cyclohexylpropan-2-yl)amino)methyl)phenyl)ethane-1-sulfonamide] | – | – | 150 (≈ 50.8 µg/mL) | > 150 | 4 (≈ 1.35 µg/mL) | 55 (≈ 18.6 µg/mL) | –
CC(NCCC1=CCCCC1)c1ccccc1 (stereo not shown) [B36] | – | – | > 150 | > 150 | > 150 | > 150 | –
O=C1Cc2ccccc2CN1CCC1CCSCC1 [B410, 2-(2-(tetrahydro-2H-thiopyran-4-yl)ethyl)-1,4-dihydroisoquinolin-3(2H)-one] | – | – | > 150 | > 150 | > 150 | > 150 | –
CC(CC1CCCCC1)NCc1ccccc1OCc1cccnc1 (stereo not shown) [B296] | 7 (≈ 2.37 µg/mL) | 91 (≈ 30.8 µg/mL) | > 150 | > 150 | – | – | –
OC1(CNCc2ccccc2)C2C3CC4C5C3CC2C5C41 (stereo not shown) [B37] | – | – | > 150 | 150 (≈ 42.2 µg/mL) | > 150 | > 150 | –
CCN1CC(COc2ccccc2CNC(C)CC2CCCCC2)OC1=O (stereo not shown) [B369] | 3 (≈ 1.12 µg/mL) | > 150 | > 150 | > 150 | – | – | –
c1csc(-c2ccccc2CNCCC2CCCCC2)c1 [B230, 2-cyclohexyl-N-(2-(thiophen-2-yl)benzyl)ethanamine hydrochloride] | 4 | 96 | 96 | 55 | – | – | –
c1ccc(CNCCC2CSc3ccccc3O2)cc1 (stereo not shown) [B118] | – | – | > 150 | > 150 | > 150 | > 150 | –

SMILES | MIC (E. coli; [1]) [µM] | MIC (E. coli; [2]) [µM] | MIC (A. baumannii; [3]) [µM] | MIC (H37RvMA; [4]) [µM] | MIC (E. coli; [5]) [µM] | MIC (E. coli; [6]) [µM] | also measured
c1ccc(CNCCC2CCNCC2)cc1 [B215, N-benzyl-2-(piperidin-4-yl)ethanamine hydrochloride] | > 300 | > 300 | > 300 | > 150 | – | – | –
NS(=O)(=O)c1ccccc1CNCCC1CCCCC1 [B345] | 20 (≈ 5.93 µg/mL) | > 150 | 33 (≈ 9.78 µg/mL) | > 150 | – | – | –
CC(CC1CCCCC1)NCc1ccccc1CS(=O)(=O)Nc1cccc(B(O)O)c1 (stereo not shown) [B457, (3-(((2-(((1-cyclohexylpropan-2-yl)amino)methyl)phenyl)methyl)sulfonamido)phenyl)boronic acid] | – | – | 33 (≈ 14.7 µg/mL) | > 55 | < 1 | 33 (≈ 14.7 µg/mL) | –
c1ccc(-c2ccccc2CNCCC2CCCCC2)cc1 [B229, N-(biphenyl-2-ylmethyl)-2-cyclohexylethanamine hydrochloride] | 7 | 170 | 96 | 33 | – | – | –
CC(CC1CCCCC1)NCc1ccccc1OCCCn1c(=O)[nH]c2ccccc21 (stereo not shown) [B247] | 2 (≈ 0.843 µg/mL) | 150 (≈ 63.2 µg/mL) | 91 (≈ 38.4 µg/mL) | > 150 | – | – | –
c1ccc(CNCCc2ccc3ccccc3n2)cc1 [B155] | – | – | > 150 | > 150 | > 150 | > 150 | –
CC(NCc1ccccc1)C1(C)CC1 (stereo not shown) [B149] | – | – | > 150 | > 150 | > 150 | > 150 | –
CC(CC1CCCCC1)NCc1ccccc1Oc1ccccc1F (stereo not shown) [B405, 1-cyclohexyl-N-(2-(2-fluorophenoxy)benzyl)propan-2-amine] | – | – | 150 (≈ 51.2 µg/mL) | 33.4 (≈ 11.4 µg/mL) | 5 (≈ 1.71 µg/mL) | 91 (≈ 31.1 µg/mL) | –
CC1CCCCC1CCN1Cc2ccccc2CC1=O (stereo not shown) [B415, 2-(2-(2-methylcyclohexyl)ethyl)-1,4-dihydroisoquinolin-3(2H)-one] | – | – | > 150 | 1.26 (≈ 0.341 µg/mL) | 55 (≈ 14.9 µg/mL) | > 150 | –
CC(C)c1ccccc1CNCCC1CCCCC1 [B227, 2-cyclohexyl-N-(2-isopropylbenzyl)ethanamine hydrochloride] | 12 | 170 | 170 | 150 | – | – | –
C[C@H](CC1=CCCCC1)NCc1ccccc1 [B170] | – | – | – | – | > 300 | > 300 | MIC (A. baumannii; [7]): > 300 µM; MIC (H37RvMA; [8]): > 150 µM
CC(C)(CN1CCCOCC1)NCc1ccccc1 [B90] | – | – | > 150 | > 150 | > 150 | > 150 | –
CC(C)C[C@H](N)C(=O)NS(=O)(=O)Cc1ccccc1CNC(C)CC1CCCCC1 (stereo partly drawn) [B428, (2S)-2-amino-N-((2-(((1-cyclohexylpropan-2-yl)amino)methyl)benzyl)sulfonyl)-4-methylpentanamide dihydrochloride] | – | – | > 150 | > 150 | 55 | > 150 | –
Clc1cccc(CNCCC2CCCCC2)c1 [B351] | > 150 | > 150 | > 150 | > 150 | – | – | –
COc1ccc(CNC(=O)COc2ccccc2CNC(C)CC2CCCCC2)cc1 (stereo not shown) [B303] | 7 (≈ 2.97 µg/mL) | > 150 | > 150 | 91 (≈ 38.6 µg/mL) | – | – | –
COc1ccc(C(C)C(C)NCc2ccccc2)cc1 (stereo not shown) [B28] | – | – | > 150 | – | > 150 | > 150 | MIC (H37RvMA; [8]): > 150 µM
CC(NCc1ccccc1)C1CCCC1 (stereo not shown) [B35] | – | – | > 150 | > 150 | > 150 | > 150 | –
Oc1ccccc1CNCCC1CCCCC1 [B226, 2-((2-cyclohexylethylamino)methyl)phenol] | 33 (≈ 7.7 µg/mL) | 54 (≈ 12.6 µg/mL) | 54 (≈ 12.6 µg/mL) | 33 (≈ 7.7 µg/mL) | – | – | –
